Structures are written as SMILES. “And” between values parts separate entries of the source, which are not always exact repeats. Equal values may be shown once.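 Values below derive from 48-hour exposures of cells grown in 96-well plates, with endpoints linearly interpolated between the two concentrations bracketing the appropriate inhibition level. The concentration for 50% growth inhibition is given as GI50. TGI marks complete inhibition of growth.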

Assay in all cases: NCI-60 cell line screen, 48 h
Test [1] concerns A549 NSCLC.
Test [2] concerns ACHN renal.
Test [3] relates to HCC-2998 colon.
The test system of test [4] is HT29 colon.
In test [5] the test system is MALME-3M melanoma.
For test [6], the system named is NCI-H226 lung.
Test [7] deals with NCI-H23 lung.
For test [8], the system named is RPMI-8226 leukemia.
Test [9] deals with SF-539 CNS.
Test [10] deals with SK-MEL-5 melanoma.

Regarding `CC(C)C[C@@H](NC(=O)[C@@H](Cc1ccccc1)NC(=O)c1cnccn1)B1O[C@H]2[C@H](O)[C@@H](C(=O)NCCCC[C@@H]3NC(=O)[C@@H](Cc4ccccc4)NC(=O)[C@H](CC(=O)O)NC(=O)CNC(=O)[C@H](CCCN=C(N)N)NC3=O)O[C@@H](CN)[C@H]2O1`, the GI50 is 28.8 nM and 14.8 nM in test [1]; 4.49 nM and 5 nM in test [2]; 0.016 µM and 0.00799 µM in test [3]; 4.18 nM and 5 nM in test [4]; 4.57 nM and 5 nM in test [5]; 2.78 nM in [6]. The GI50 in test [7] was 10.8 nM and 5 nM; in test [8] it was 3.73 nM and 5 nM; in test [9], 3.19 nM and 5 nM; in [10], 4.57 nM and 5 nM. Besides, the TGI in test [1] is 0.658 µM; in test [2], 0.494 µM and 0.153 µM; in test [3], 0.0323 µM and 0.0165 µM; in test [4], 0.0325 µM and 0.00763 µM; in test [5] it was 0.127 µM and 0.591 µM; in test [6] it was 0.0077 µM. Further, the TGI in test [7] is 0.0943 µM and 0.0537 µM; in [8], 0.267 µM and 1.04 µM; in test [9] it was 0.015 µM and 0.0123 µM; in test [10] it was 0.0188 µM and 0.00855 µM.
On to `COc1ccc(C(=O)/C=C/c2ccc(O)c(O)c2F)c(OC)c1`, for which the GI50 was 8620 nM in test [1]; 5490 nM in [2]; 3.41 µM in test [3]; 4030 nM in [4]; 12000 nM in [5]; 5270 nM in [7]. Moreover, the values for the GI50 in [8], in test [9] and in test [10] were 923 nM, 4500 nM and 2700 nM, respectively. The TGI is 75 µM and > 100 µM in test [1]; 25.6 µM and > 100 µM in test [2]; 12.2 µM and 12.3 µM in test [3]; 23.8 µM and 17.7 µM in [4]; 22.6 µM and 25.2 µM in [5]; 37.1 µM and 46.3 µM in test [6]. Also, the TGI is 12.6 µM and 32.1 µM in [7]; 31 µM and 8.25 µM in [8]; 15.7 µM and 28.5 µM in test [9]; 13.6 µM and 19.6 µM in test [10].
As for `O=C(Cc1nc2ccccc2s1)C(=O)Nc1ccc(Cl)cc1`, the TGI in test [1], in test [2], in test [3], in test [4], in test [5] and in test [6] was > 100 µM in each case. The TGI in test [7], in [8], in [9] and in [10] was > 100 µM in each case.
For `CN(C)CCCCN1CCc2c(n(C)c3ccccc23)C1=O`, the TGI in test [1] was > 93.5 µM; in test [2], > 100 µM; in test [3] it was 64.3 µM and 30.3 µM; in test [4], 63.4 µM and 37.9 µM; in [5], 43.6 µM and 36.3 µM; in [6] it was > 80.5 µM. For the same molecule, the TGI in test [7] is > 100 µM; in test [8], 93.2 µM and 64.7 µM; in test [9], 68.9 µM and 44 µM; in test [10], 42.8 µM and 31.9 µM. Further, the GI50 in test [3] is 39.7 µM and 15.9 µM; in test [8] it was 61700 nM and 29300 nM; in [9], 50500 nM and 21700 nM.
For the molecule `CCC1=C(C)/C(=C/c2[nH]c(C)c(C(=O)CCCCC(=O)OC)c2C)N=C1c1ccc[nH]1`, the GI50 in test [1] was 20400 nM; in test [2] it was 15300 nM; in test [3], 22.3 µM; in [4] it was 5110 nM; in test [5], 13700 nM; in [6], 17600 nM. Besides, the GI50 in test [7] is 17300 nM; in [8] it was 3370 nM; in [9], 13200 nM; in [10] it was 7800 nM. In addition, the TGI in test [1] is > 53.4 µM; in test [2], 31.1 µM; in test [3] it was 54.1 µM; in [4], 38.4 µM; in test [5], 45.1 µM; in [6] it was 51.3 µM. The TGI amounted to 55.5 µM in [7], 13.9 µM in test [8], 27.1 µM in [9] and 20.8 µM in [10].
`COc1ccc(C(=O)Cn2c(C(=O)c3ccc(OC)cc3)nc3ccccc32)cc1`: the GI50 is 5470 nM in [1]; 6580 nM in test [2]; 5.64 µM in test [3]; 576 nM in test [4]; 2910 nM in test [5]; > 28500 nM in test [6]. In addition, the GI50 in test [7] is 6150 nM; in test [8] it was 1520 nM; in [9] it was 2800 nM; in test [10] it was 2360 nM. Further, the TGI in [1], in test [2], in test [3], in test [4], in test [5] and in test [6] was > 100 µM each time. For the same molecule, the TGI in test [7] was > 100 µM; in [8] it was 8.28 µM; in [9], > 100 µM; in test [10], > 27.1 µM.
Consider `CCn1c(=O)c(-c2ccn[nH]2)cc2c(C)nc(N)nc21`, for which the GI50 in test [1] was 1990 nM; in [2], 1490 nM; in test [3], 5.03 µM; in [4], 1530 nM; in test [5] it was 167 nM; in test [6], 2410 nM. In addition, the GI50 in test [7] is 2070 nM; in test [8] it was 821 nM; in test [9], 1770 nM; in [10] it was 1380 nM. For the same molecule, the TGI in test [1] was 7.41 µM; in test [2], > 100 µM; in test [3], > 100 µM; in [4], > 100 µM; in test [5] it was 1.33 µM; in test [6], > 100 µM. Besides, the TGI is > 100 µM in [7], 12.3 µM in test [8], 10.1 µM in test [9] and 6.3 µM in test [10].
Regarding `Nc1c(C(=O)Nc2ccccc2)sc2nc3c(cc12)CCCCCC3`, the GI50 in test [1] is 467 nM; in [2], 887 nM; in [3] it was 0.485 µM; in [4], 303 nM; in test [5], 1290 nM; in test [6] it was 652 nM. The GI50 in test [7] is 650 nM; in [8], 379 nM; in [9] it was 231 nM; in [10], 393 nM. Besides, the TGI in test [1] was found to be 20.1 µM; in test [2] it was 14 µM; in test [4] it was 1.43 µM; in test [5], 19.4 µM; in test [6], 12.7 µM; in [7], 16.4 µM. Besides, the TGI in test [8] amounted to 15.7 µM; in test [9], 0.741 µM; in test [10], 9.07 µM.

For the origin of these results see PubChem BioAssay (NCI).
